The compounds below were run against human PD-L1 / Human PD-1 (Homo sapiens (Human), UniProt Q9NZQ7) (assay: Enzyme-Linked Immunosorbent Assay (ELISA), PD-1/PD-L1 binding). Conditions: Table 3; plate-coated human PD-L1, biotinylated human PD-1; read-out: ELISA IC50.
Chain of human PD-L1 / Human PD-1 (Q9NZQ7 19-239): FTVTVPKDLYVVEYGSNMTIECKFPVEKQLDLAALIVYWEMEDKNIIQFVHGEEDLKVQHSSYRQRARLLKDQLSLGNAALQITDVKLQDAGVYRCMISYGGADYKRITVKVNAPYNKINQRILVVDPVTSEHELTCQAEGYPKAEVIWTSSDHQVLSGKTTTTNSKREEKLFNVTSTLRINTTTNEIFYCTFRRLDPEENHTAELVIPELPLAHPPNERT
Summary of the method: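 Human PD-L1 coated at 1 μg/mL overnight at 4° C; samples diluted 1:5 and incubated with human PD-1 and biotin (0.3 μg/mL) for 1 h at 37° C. Bound PD-1 detected with streptavidin-HRP and TMB (20 min, 37° C), acid-stopped, absorbance at 450 nm.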
With `N#Cc1cncc(COc2cc(O[C@H]3CCc4c(-c5ccc6c(c5F)OCCO6)cccc43)c(Cl)cc2CN[C@@H](CCO)C(=O)O)c1` [Example 3.034] the IC50 was < 100 nM.
For `COC(=O)[C@](C)(CO)NCc1cc(Cl)c(O[C@H]2CCc3c(-c4ccc5c(c4F)OCCO5)cccc32)cc1OCc1cncc(C#N)c1` [Example 3.035], the IC50 was 100 to 500 nM.
Work on `N#Cc1cncc(COc2cc(O[C@H]3CCc4c(-c5ccc6c(c5F)OCCO6)cccc43)c(Cl)cc2CN[C@H]2CCCC[C@@H]2C(=O)O)c1` [Example 3.036] yielded an IC50 of 100 to 500 nM.
In the case of `N#Cc1cncc(COc2cc(O[C@H]3CCc4c(-c5ccccc5F)cccc43)c(Cl)cc2CN[C@@H]2CCOC[C@H]2O)c1` [Example 3.037], the IC50 is reported as < 100 nM.
For `N#Cc1cncc(COc2cc(O[C@H]3CCc4c(-c5ccccc5F)cccc43)c(Cl)cc2CN[C@@H]2COC[C@H]2O)c1` [Example 3.039], the IC50 was < 100 nM.
`N#Cc1cncc(COc2cc(O[C@H]3CCc4c(-c5ccccc5F)cccc43)c(Cl)cc2CN[C@H]2CCC[C@H](O)C2)c1` [Example 3.040] was tested, and the IC50 was < 100 nM.
`N#Cc1cncc(COc2cc(O[C@H]3CCc4c(-c5ccc6c(c5F)OCCO6)cccc43)c(Cl)cc2CN[C@H]2CONC2=O)c1` [Example 3.042] showed an IC50 of 500 to 20000 nM.
`N#Cc1cncc(COc2cc(O[C@H]3CCc4c(-c5ccccc5F)cccc43)c(Cl)cc2CN[C@@H](CO)C(=O)NCC(=O)NCC(=O)O)c1` [Example 3.043] was tested, and the IC50 was < 100 nM.
With `N#Cc1cncc(COc2cc(O[C@H]3CCc4c(-c5ccccc5F)cccc43)c(Cl)cc2CN[C@@H](CO)C(=O)NCC(=O)O)c1` [Example 3.044] the IC50 was < 100 nM.
Compound `CC(C)OC(=O)[C@@H](NCc1cc(Cl)c(O[C@H]2CCc3c(-c4ccc5c(c4F)OCCO5)cccc32)cc1OCc1cncc(C#N)c1)[C@@H](C)O` [Example 3.045] has an IC50 of 500 to 20000 nM.
For `CC(C)OC(=O)[C@H](CO)NCc1cc(Cl)c(O[C@H]2CCc3c(-c4ccc5c(c4F)OCCO5)cccc32)cc1OCc1cncc(C#N)c1` [Example 3.046], the IC50 was 500 to 20000 nM.
In the case of `C[C@H](NCc1cc(Cl)c(O[C@H]2CCc3c(-c4ccccc4F)cccc32)cc1OCc1cncc(C#N)c1)C(=O)N[C@@H](CO)C(=O)O` [Example 3.047], the IC50 is reported as < 100 nM.
For `N#Cc1cncc(COc2cc(O[C@H]3CCc4c(-c5ccccc5F)cccc43)c(Cl)cc2CN[C@@H](CO)C(=O)N[C@@H](CO)C(=O)N[C@@H](CO)C(=O)O)c1` [Example 3.048], the IC50 was < 100 nM.
With `C[C@H](NC(=O)[C@H](CO)NCc1cc(Cl)c(O[C@H]2CCc3c(-c4ccccc4F)cccc32)cc1OCc1cncc(C#N)c1)C(=O)O` [Example 3.049] the IC50 was < 100 nM.
For `N#Cc1cncc(COc2cc(O[C@H]3CCc4c(-c5ccccc5F)cccc43)c(Cl)cc2CNCC(=O)N[C@@H](CO)C(=O)O)c1` [Example 3.050], the IC50 was 100 to 500 nM.
Compound `N#Cc1cncc(COc2cc(O[C@H]3CCc4c(-c5ccccc5F)cccc43)c(Cl)cc2CNCCCN2CCS(=O)(=O)CC2)c1` [Example 3.051] has an IC50 of 100 to 500 nM.
`CC(Cc1ccccn1)NCc1cc(Cl)c(O[C@H]2CCc3c(-c4ccccc4F)cccc32)cc1OCc1cncc(C#N)c1` (stereo partly shown) [Example 3.052] gave an IC50 of 100 to 500 nM.
In the case of `C[C@@H](O)[C@H](NCc1cc(Cl)c(O[C@H]2CCc3c(-c4ccc5c(c4F)OCCO5)cccc32)cc1OCc1cncc(C#N)c1)C(=O)O` [Example 3.053], the IC50 is reported as < 100 nM.
In the case of `N#Cc1cncc(COc2cc(O[C@H]3CCc4c(-c5ccc6c(c5F)OCCO6)cccc43)c(Cl)cc2CN[C@H](CO)C(=O)O)c1` [Example 3.054], the IC50 is reported as < 100 nM.
`Cc1cc(C#N)cc(COc2cc(O[C@H]3CCc4c(-c5ccccc5F)cccc43)c(Cl)cc2CN[C@@H](CO)C(=O)O)c1` [Example 3.055] showed an IC50 of 100 to 500 nM.
`N#Cc1cncc(COc2cc(O[C@H]3CCc4c(-c5ccccc5F)cccc43)c(Cl)cc2CN[C@@H](Cc2c[nH]cn2)C(=O)NCC(=O)NCC(=O)O)c1` [Example 3.056] showed an IC50 of 500 to 20000 nM.
For `N#Cc1cncc(COc2cc(O[C@H]3CCc4c(-c5ccc6c(c5F)OCCO6)cccc43)c(Cl)cc2CNC(CO)(CO)CO)c1` [Example 3.057], the IC50 was < 100 nM.
Compound `C[C@H](NCc1cc(Cl)c(O[C@H]2CCc3c(-c4ccccc4F)cccc32)cc1OCc1cncc(C#N)c1)C(=O)NCC(=O)O` [Example 3.058] has an IC50 of 100 to 500 nM.
In the case of `N#Cc1cncc(COc2cc(O[C@H]3CCc4c(-c5ccccc5F)cccc43)c(Cl)cc2CNCc2c[nH]cn2)c1` [Example 3.059], the IC50 is reported as < 100 nM.
`C[C@H](NC(=O)[C@H](C)NCc1cc(Cl)c(O[C@H]2CCc3c(-c4ccccc4F)cccc32)cc1OCc1cncc(C#N)c1)C(=O)O` [Example 3.060] was tested, and the IC50 was < 100 nM.
`N#Cc1cncc(COc2cc(O[C@H]3CCc4c(-c5ccccc5F)cccc43)c(Cl)cc2CNCC(=O)NCC(=O)O)c1` [Example 3.062] was tested, and the IC50 was < 100 nM.
In the case of `N#Cc1cc(Br)cc(COc2cc(O[C@H]3CCc4c(-c5ccccc5F)cccc43)c(Cl)cc2CN[C@@H](CO)C(=O)O)c1` [Example 3.063], the IC50 is reported as < 100 nM.
`C[C@@H](O)[C@@H](CC(=O)O)NCc1cc(Cl)c(O[C@@H]2CCc3c(-c4ccccc4F)cccc32)cc1OCc1cncc(C#N)c1` [Example 3.064] gave an IC50 of 500 to 20000 nM.
`N#Cc1cncc(COc2cc(O[C@H]3CCc4c(-c5ccccc5F)cccc43)c(Cl)cc2CNC2CC(=O)NC(=O)C2)c1` [Example 3.065] was tested, and the IC50 was 500 to 20000 nM.
`CC(NCc1cc(Cl)c(O[C@H]2CCc3c(-c4ccccc4F)cccc32)cc1OCc1cncc(C#N)c1)c1ccn(C)n1` (stereo partly shown) [Example 3.066] was tested, and the IC50 was 100 to 500 nM.
For `N#Cc1cncc(COc2cc(O[C@H]3CCc4c(-c5ccccc5F)cccc43)c(Cl)cc2CN[C@H]2CC[C@H](O)CC2)c1` [Example 3.068], the IC50 was < 100 nM.
In the case of `N#Cc1cncc(COc2cc(O[C@@H]3CCc4c(-c5ccccc5F)cccc43)c(Cl)cc2CN[C@H](CO)C(=O)O)c1` [Example 3.069], the IC50 is reported as < 100 nM.
For `N#Cc1cncc(COc2cc(OC3CCc4c(-c5ccccc5F)cccc43)c(F)cc2CN[C@@H](CO)C(=O)O)c1` (stereo partly shown) [Example 3.070], the IC50 was < 100 nM.
With `N#Cc1cncc(COc2cc(O[C@H]3CCc4c(-c5ccccc5F)cccc43)c(Cl)cc2CN[C@@H]2CCCC[C@H]2O)c1` [Example 3.071] the IC50 was < 100 nM.
With `N#Cc1cncc(COc2cc(O[C@H]3CCc4c(-c5ccccc5F)cccc43)c(Cl)cc2CNC2CCOCC2)c1` [Example 3.072] the IC50 was < 100 nM.
For `N#Cc1cncc(COc2cc(O[C@H]3CCc4c(-c5ccccc5F)cccc43)c(Cl)cc2CN2C[C@H](O)[C@@H](O)[C@H](O)[C@H]2CO)c1` [Example 3.073], the IC50 was 500 to 20000 nM.
In the case of `CCN(CC)CCCC(C)NCc1cc(Cl)c(O[C@H]2CCc3c(-c4ccccc4F)cccc32)cc1OCc1cncc(C#N)c1` (stereo partly shown) [Example 3.074], the IC50 is reported as < 100 nM.
Work on `Cn1ccnc1CNCc1cc(Cl)c(O[C@H]2CCc3c(-c4ccccc4F)cccc32)cc1OCc1cncc(C#N)c1` [Example 3.075] yielded an IC50 of 100 to 500 nM.
`CC(NCc1cc(Cl)c(O[C@H]2CCc3c(-c4ccccc4F)cccc32)cc1OCc1cncc(C#N)c1)C(=O)c1ccc(O)c(O)c1` (stereo partly shown) [Example 3.076] gave an IC50 of 100 to 500 nM.
In the case of `N#Cc1cncc(COc2cc(O[C@H]3CCc4c(-c5ccccc5F)cccc43)c(Cl)cc2CNCCN2CCCCC2CO)c1` (stereo partly shown) [Example 3.077], the IC50 is reported as 100 to 500 nM.
`COC(=O)Cc1ccccc1-c1cccc2c1CC[C@@H]2Oc1cc(OCc2cncc(C#N)c2)c(CN[C@@H](CO)C(=O)O)cc1Cl` [Example 3.078] showed an IC50 of 500 to 20000 nM.
Compound `N#Cc1cncc(COc2cc(O[C@H]3CCc4c(-c5ccccc5O)cccc43)c(Cl)cc2CN[C@@H](CO)C(=O)O)c1` [Example 3.079] has an IC50 of 100 to 500 nM.
`CN(C)CCCCCNCc1cc(Cl)c(O[C@H]2CCc3c(-c4ccccc4F)cccc32)cc1OCc1cncc(C#N)c1` [Example 3.080] was tested, and the IC50 was < 100 nM.
In the case of `N#Cc1cncc(COc2cc(O[C@H]3CCc4c(-c5ccccc5F)cccc43)c(Cl)cc2CNCc2ncc(-c3ccccc3)[nH]2)c1` [Example 3.081], the IC50 is reported as 500 to 20000 nM.
`Cc1n[nH]c(C)c1CNCc1cc(Cl)c(O[C@H]2CCc3c(-c4ccccc4F)cccc32)cc1OCc1cncc(C#N)c1` [Example 3.082] showed an IC50 of 100 to 500 nM.
`N#Cc1cncc(COc2cc(O[C@H]3CCc4c(-c5ccccc5F)cccc43)c(Cl)cc2CN[C@H](CNC(=N)N)C(=O)O)c1` [Example 3.083] was tested, and the IC50 was < 100 nM.
With `N#Cc1cncc(COc2cc(O[C@H]3CCc4c(-c5ccccc5F)cccc43)c(Cl)cc2CNCc2cccnn2)c1` [Example 3.084] the IC50 was < 100 nM.
`CCc1cc(CNCc2cc(Cl)c(O[C@H]3CCc4c(-c5ccccc5F)cccc43)cc2OCc2cncc(C#N)c2)on1` [Example 3.085] showed an IC50 of 500 to 20000 nM.
For `C[C@H](NCc1cc(Cl)c(O[C@H]2CCc3c(-c4ccccc4F)cccc32)cc1OCc1cncc(C#N)c1)C(=O)N[C@@H](C)P(=O)(O)O` [Example 3.086], the IC50 was < 100 nM.
In the case of `Cc1cc2cc(CNCc3cc(Cl)c(O[C@H]4CCc5c(-c6ccccc6F)cccc54)cc3OCc3cncc(C#N)c3)ccc2[nH]1` [Example 3.087], the IC50 is reported as 500 to 20000 nM.
`N#Cc1cncc(COc2cc(O[C@H]3CCc4c(-c5ccccc5F)cccc43)c(Cl)cc2CNCCCCN(CCO)CCO)c1` [Example 3.088] was tested, and the IC50 was 100 to 500 nM.
For `N#Cc1cncc(COc2cc(O[C@H]3CCc4c(-c5ccccc5F)cccc43)c(Cl)cc2CNCCCN2CCN(CCO)CC2)c1` [Example 3.089], the IC50 was 100 to 500 nM.
Compound `CC(C)c1nccn1CCCNCc1cc(Cl)c(O[C@H]2CCc3c(-c4ccccc4F)cccc32)cc1OCc1cncc(C#N)c1` [Example 3.090] has an IC50 of 100 to 500 nM.
With `Cn1cnc(CNCc2cc(Cl)c(O[C@H]3CCc4c(-c5ccccc5F)cccc43)cc2OCc2cncc(C#N)c2)c1` [Example 3.091] the IC50 was < 100 nM.
With `N#Cc1cncc(COc2cc(O[C@H]3CCc4c(-c5ccccc5F)cccc43)c(Cl)cc2CNCc2ccc(C(N)=O)cc2)c1` [Example 3.092] the IC50 was 100 to 500 nM.
`N#Cc1cncc(COc2cc(O[C@H]3CCc4c(-c5ccccc5F)cccc43)c(Cl)cc2CN[C@H]2CCc3ccc(O)cc3C2)c1` [Example 3.093] was tested, and the IC50 was 100 to 500 nM.
With `N#Cc1cncc(COc2cc(O[C@H]3CCc4c(-c5ccccc5F)cccc43)c(Cl)cc2CNC(Cc2cccnc2)C(=O)O)c1` (stereo partly shown) [Example 3.094] the IC50 was < 100 nM.
With `CC(NCc1cc(Cl)c(O[C@H]2CCc3c(-c4ccccc4F)cccc32)cc1OCc1cncc(C#N)c1)C(=O)NC(CO)C(=O)O` (stereo partly shown) [Example 3.095] the IC50 was < 100 nM.
